Experiments:
BT-549 breast cancer = assay: NCI 60-cell screen dose-response study, BT-549; assay type: cell-based
Description: (§1) TIR-199 activity in inhibiting cancer cell growth was tested in a National Cancer Institute (“NCI”) 60-cell screen in triplicate (see FIGS. 3-14).
(§2) The NCI 60-cell screens were initially tested with 10 μM dose of TIR-199. […] Due to the initial results being so promising, a full dose-response study was performed in triplicate with the NCI cell lines.

[1] = tested on: multiple myeloma cell lines; assay: Studies with multiple myeloma cell lines; assay type: cell-based
TK-10 renal cancer = assay: NCI 60-cell screen dose-response study, TK-10; assay type: cell-based
Description: as §1, §2

cancerous cell lines = assay: Confirmatory in vitro cell-based screens; conditions: confirmatory in-vitro experiments in various laboratories
OVCAR-5 = assay: NCI 60-cell screen dose-response study, OVCAR-5; assay type: cell-based; conditions: Homo sapiens, dose-response study in triplicate, most sensitive cell line
Description: as §1, §2

PC3 prostate cancer = assay: NCI 60-cell screen dose-response study, PC3; assay type: cell-based
Description: as §1, §2

HCC-2998 colon cancer = assay: NCI 60-cell screen dose-response study, HCC-2998; assay type: cell-based
Description: as §1, §2

60 cancerous cell lines = assay: NCI 60-cell screen; assay type: cell-based
Description: as §1, §2

RXF 393 renal cancer = assay: NCI 60-cell screen dose-response study, RXF 393; assay type: cell-based
Description: as §1, §2

[2] = tested on: NCI-H226 lung cancer line; assay: NCI 60-cell screen dose-response study, NCI-H226; assay type: cell-based
Description: as §1, §2

SMILES: CCCCCCCCCCCCNC(=O)N[C@H](C(=O)N[C@H]1/C=C/CCNC(=O)/C=C/[C@H](C)NC1=O)C(C)C [TIR-199]
- sensitivity of cell line (BT-549 breast cancer): particularly sensitive
- potency compared with bortezomib [1]: nearly as potent as the FDA approved proteasome inhibitor, bortezomib
- sensitivity of cell line (TK-10 renal cancer): particularly sensitive
- potency against cancerous cell lines (cancerous cell lines): low nanomolar potency
- IC50 (OVCAR-5): 10 nM
- sensitivity of cell line (PC3 prostate cancer): particularly sensitive
- sensitivity of cell line (HCC-2998 colon cancer): particularly sensitive
- growth suppression and/or apoptosis induction in dose response study (60 cancerous cell lines; 60 cancerous cell lines, varying log10 amounts (FIG. 3)): suppressed the growth and/or induced apoptosis in every cancerous cell line
- suppression of cancer cell growth (60 cancerous cell lines; initial single dose, 10 μM): effectively suppressed cancer cell growth universally across the cell lines
- effectiveness on kidney cancer activity (60 cancerous cell lines; kidney (renal) cancer lines): surprisingly potent
- sensitivity of cell line (RXF 393 renal cancer): particularly sensitive
- potency against cell line [2]: Particular potency

Reference: patent publication US9399627B2, “Substituted macrocyclic compounds having proteasome inhibitory activity” (THE REGENTS OF THE UNIVERSITY OF CALIFORNIA, priority 2012, dated 2016)
